Where two headings read alike, the source gives them in different places.
Columns and labels:
[1] = test system: IL-1β production in PMA-differentiated THP-1 cells; assay: Measurement of IL-1β production in PMA-differentiated THP-1 cells (ELISA, 4 hours); assay type: cell-based, human; settings: assayed using one or more of the described procedures, read-out: NLRP3 hIL1B IC50
In short: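 THP-1 cells differentiated with PMA (10 μg/ml, 24 h), replated at 1×10^6 cells/ml in RPMI with 2% FBS and exposed to compounds (e.g. 0.1–100 μM, 1% DMSO final) for 4 hours. IL-1β in cell-free supernatant quantified by ELISA against vehicle control.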

human TLR8 = biological target: T1, human TLR8 (Homo sapiens, UniProt Q9NR97); assay: In vitro human TLR8 binding reporter assay (HEK-Blue, NF-kB/AP1-inducible SEAP); assay type: cell-based; settings: HEK-Blue human TLR8 SEAP reporter cells; activity range classes; read-out: TLR8 Agonist EC50
T1 construct: host or cells: human HEK-Blue cells (HEK293-derived) co-expressing TLR8 and an NF-kB/AP1-inducible SEAP reporter
T1 sequence (Q9NR97 27-1041): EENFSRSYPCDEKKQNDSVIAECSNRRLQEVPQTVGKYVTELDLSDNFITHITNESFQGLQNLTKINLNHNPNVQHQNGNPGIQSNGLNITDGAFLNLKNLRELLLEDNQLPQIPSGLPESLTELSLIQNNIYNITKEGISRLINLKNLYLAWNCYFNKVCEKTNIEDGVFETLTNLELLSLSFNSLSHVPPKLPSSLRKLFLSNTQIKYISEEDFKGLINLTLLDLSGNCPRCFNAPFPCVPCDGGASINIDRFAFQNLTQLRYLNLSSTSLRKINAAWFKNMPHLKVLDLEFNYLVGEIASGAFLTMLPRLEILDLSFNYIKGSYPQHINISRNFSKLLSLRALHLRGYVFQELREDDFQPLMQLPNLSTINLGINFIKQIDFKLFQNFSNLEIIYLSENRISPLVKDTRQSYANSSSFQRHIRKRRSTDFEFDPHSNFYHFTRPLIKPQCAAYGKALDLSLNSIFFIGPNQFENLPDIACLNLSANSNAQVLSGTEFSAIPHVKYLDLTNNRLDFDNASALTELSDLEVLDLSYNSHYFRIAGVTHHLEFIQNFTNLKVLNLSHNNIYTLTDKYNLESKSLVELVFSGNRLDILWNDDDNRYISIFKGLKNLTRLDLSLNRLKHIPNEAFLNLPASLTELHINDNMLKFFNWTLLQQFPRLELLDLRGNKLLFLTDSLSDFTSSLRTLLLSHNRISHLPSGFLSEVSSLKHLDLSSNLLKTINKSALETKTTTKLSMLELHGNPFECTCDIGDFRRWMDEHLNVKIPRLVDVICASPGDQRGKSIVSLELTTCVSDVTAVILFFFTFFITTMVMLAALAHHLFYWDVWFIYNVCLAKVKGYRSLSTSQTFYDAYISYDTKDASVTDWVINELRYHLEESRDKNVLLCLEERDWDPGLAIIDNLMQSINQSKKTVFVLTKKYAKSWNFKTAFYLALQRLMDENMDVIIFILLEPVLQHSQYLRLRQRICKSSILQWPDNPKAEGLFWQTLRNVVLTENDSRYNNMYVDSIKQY
In short: (§1)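 Cells are seeded and grown for 24 h. Compounds or DMSO are then added and incubated 18 h at 37 °C. Quanti-Blue is added, and SEAP is read after thirty minutes. EC50 values are normalized, with RLU from 50 μM reference standard setting 100% Ymax.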

human TLR7 = biological target: T2, human TLR7 (Homo sapiens, UniProt Q9NYK1); assay: In vitro human TLR7 binding reporter assay (HEK-Blue, NF-kB/AP1-inducible SEAP); assay type: cell-based; settings: HEK-Blue human TLR7 SEAP reporter cells; activity range classes; read-out: TLR7 Agonist EC50
T2 construct: host or cells: human HEK-Blue cells (HEK293-derived) co-expressing TLR7 and an NF-kB/AP1-inducible SEAP reporter
T2 sequence (Q9NYK1 27-1049): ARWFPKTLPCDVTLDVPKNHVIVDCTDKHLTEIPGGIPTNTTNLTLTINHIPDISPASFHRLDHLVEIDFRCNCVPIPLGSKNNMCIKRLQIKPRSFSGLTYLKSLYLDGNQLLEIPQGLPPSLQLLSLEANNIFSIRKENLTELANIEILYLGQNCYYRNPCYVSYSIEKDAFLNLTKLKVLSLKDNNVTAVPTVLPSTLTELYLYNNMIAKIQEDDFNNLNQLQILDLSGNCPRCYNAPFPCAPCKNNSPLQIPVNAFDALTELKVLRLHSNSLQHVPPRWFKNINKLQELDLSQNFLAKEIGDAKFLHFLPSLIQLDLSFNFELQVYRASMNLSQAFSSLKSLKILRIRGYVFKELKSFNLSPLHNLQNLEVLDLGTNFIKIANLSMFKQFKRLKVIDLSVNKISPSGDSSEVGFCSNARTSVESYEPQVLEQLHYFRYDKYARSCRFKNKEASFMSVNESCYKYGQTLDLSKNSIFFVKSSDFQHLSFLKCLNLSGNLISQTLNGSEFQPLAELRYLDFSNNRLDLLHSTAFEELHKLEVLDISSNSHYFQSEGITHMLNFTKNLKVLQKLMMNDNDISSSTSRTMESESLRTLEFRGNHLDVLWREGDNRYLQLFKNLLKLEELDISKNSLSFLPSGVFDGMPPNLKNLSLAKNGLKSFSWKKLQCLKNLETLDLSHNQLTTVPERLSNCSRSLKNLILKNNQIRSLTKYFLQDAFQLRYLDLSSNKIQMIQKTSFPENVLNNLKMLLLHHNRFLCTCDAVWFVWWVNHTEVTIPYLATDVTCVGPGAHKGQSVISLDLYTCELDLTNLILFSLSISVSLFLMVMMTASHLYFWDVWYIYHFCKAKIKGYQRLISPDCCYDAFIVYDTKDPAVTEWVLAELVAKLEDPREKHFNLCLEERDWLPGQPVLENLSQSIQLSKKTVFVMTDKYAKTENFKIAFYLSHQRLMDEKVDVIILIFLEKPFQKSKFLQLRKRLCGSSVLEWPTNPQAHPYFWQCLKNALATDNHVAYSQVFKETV
In short: as §1

[2] = Homo sapiens, THP-1, human IL-1β production

IC50 [1, 2] | EC50 (human TLR8) | EC50 (human TLR7) | IC50 ([1]; human IL-1β production) | Compound
0.11 µM | > 100 µM | > 100 µM | – | Nc1cc(OCc2ccn[nH]2)c2ccc(-c3ccn[nH]3)cc2n1 [Compound 313, 4-((1H-pyrazol-5-yl)methoxy)-7-(1H-pyrazol-5-yl)quinolin-2-amine]
1.11 µM | > 100 µM | > 100 µM | – | Nc1cc(NCCC2CCOCC2)c2ccc(-c3cc[nH]n3)cc2n1 [Compound 344, 7-(1H-pyrazol-3-yl)-N4-(2-(tetrahydro-2H-pyran-4-yl)ethyl)quinoline-2,4-diamine]
1.77 µM | > 100 µM | > 100 µM | – | Nc1cc(NCCC2CCOCC2)c2ccc(-c3ccsc3)cc2n1 [Compound 345, N4-(2-(tetrahydro-2H-pyran-4-yl)ethyl)-7-(thiophen-3-yl)quinoline-2,4-diamine]
2.03 µM | > 100 µM | > 100 µM | – | Nc1cc(OCC2(CO)CCC2)c2ccc(-c3ccsc3)cc2n1 [Compound 336]
0.52 µM | > 100 µM | > 100 µM | – | Nc1cc(NCCn2cncn2)c2ccc(-n3cccn3)cc2n1 [Compound 308]
0.64 µM | > 100 µM | > 100 µM | – | CS(=O)(=O)CCNc1cc(N)nc2cc(-n3cccn3)ccc12 [Compound 305]
1.98 µM | > 100 µM | > 100 µM | – | Nc1cc(N2CCCC(CO)C2)c2ccc(-c3ccn[nH]3)cc2n1 (stereo not drawn) [Compound 274]
1.7 µM | > 100 µM | > 100 µM | – | Nc1cc(N[C@H]2CC[C@@H](O)CC2)c2ccc(-c3ccn[nH]3)cc2n1 [Compound 283]
0.73 µM | > 100 µM | > 100 µM | – | Nc1cc(NCCc2cccnn2)c2ccc(-c3cc[nH]n3)cc2n1 [Compound 340, 7-(1H-pyrazol-3-yl)-N4-(2-(pyridazin-3-yl)ethyl)quinolin-2,4-diamine]
1.76 µM | > 100 µM | > 100 µM | – | Nc1cc(N[C@H]2CCCNC2)c2ccc(-c3ccn[nH]3)cc2n1 [Compound 324]

The next lines start with the compound.

Compound | IC50 [1, 2] | EC50 (human TLR8) | EC50 (human TLR7) | IC50 ([1]; human IL-1β production)
3-[4-amino-7-(1H-pyrazol-3-yl)-[1,3]oxazolo[4,5-c]quinolin-2-yl]propan-1-ol [Compound 107] | – | > 100 µM | > 100 µM | 0.34 µM
CS(=O)(=O)NCCNc1cc(N)nc2cc(-c3ccn[nH]3)ccc12 [Compound 206, N-(2-((2-amino-7-(1H-pyrazol-5-yl)quinolin-4-yl)amino)ethyl)methanesulfonamide] | 0.84 µM | > 100 µM | > 100 µM | –
CC(=O)NCCOc1cc(N)nc2cc(-n3cccn3)ccc12 [Compound 177, N-(2-((2-amino-7-(1H-pyrazol-1-yl)quinolin-4-yl)oxy)ethyl)acetamide] | 3.07 µM | > 100 µM | > 100 µM | –
Nc1cc(OCCCn2cccn2)c2ccc(-c3ccn[nH]3)cc2n1 [Compound 196] | 1.11 µM | > 100 µM | > 100 µM | –
Nc1cc(N[C@H]2CC[C@@H](O)C2)c2ccc(-c3ccn[nH]3)cc2n1 [Compound 245] | 1.34 µM | > 100 µM | > 100 µM | –
CC(C)(CNc1cc(N)nc2cc(-c3ccn[nH]3)ccc12)S(C)(=O)=O [Compound 223] | 1.35 µM | > 100 µM | > 100 µM | –
Nc1cc(NCCc2cc[nH]n2)c2ccc(-c3ccn[nH]3)cc2n1 [Compound 261] | 0.14 µM | > 100 µM | > 100 µM | –
Nc1cc(NCc2c[nH]nn2)c2ccc(-c3ccn[nH]3)cc2n1 [Compound 226] | 0.73 µM | > 100 µM | > 100 µM | –
Nc1cc(OC2CCOCC2)c2ccc(-c3ccn[nH]3)cc2n1 [Compound 186] | 1.08 µM | > 100 µM | > 100 µM | –
Nc1cc(OCC(=O)N2CCCC2)c2ccc(-c3ccn[nH]3)cc2n1 [Compound 183] | 8.4 µM | > 100 µM | > 100 µM | –
Nc1cc(N2CCC[C@@H]2CO)c2ccc(-c3ccn[nH]3)cc2n1 [Compound 272] | 6.22 µM | > 100 µM | > 100 µM | –
Nc1cc(OCCn2cccn2)c2ccc(-c3ccn[nH]3)cc2n1 [Compound 201] | 5.05 µM | > 100 µM | > 100 µM | –
Nc1cc(CCCO)c2ccc(-c3ccsn3)cc2n1 [Compound 219, 3-(2-amino-7-(isothiazol-3-yl)quinolin-4-yl)propan-1-ol] | 2.75 µM | > 100 µM | > 100 µM | –
Nc1cc(N[C@H]2C[C@@H](O)C2)c2ccc(-c3ccn[nH]3)cc2n1 [Compound 234] | 0.23 µM | > 100 µM | > 100 µM | –
Nc1nc2cc(-c3ccn[nH]3)ccc2cc1CN1CCOCC1 [Compound 115] | 3.04 µM | > 100 µM | > 100 µM | –
Nc1cc(NCc2ccccc2)c2ccc(-c3ccn[nH]3)cc2n1 [Compound 256] | 0.22 µM | > 100 µM | > 100 µM | –
Nc1cc(NCc2cnco2)c2ccc(-c3ccn[nH]3)cc2n1 [Compound 230] | 0.54 µM | > 100 µM | > 100 µM | –
CS(=O)(=O)NCCCNc1cc(N)nc2cc(-c3ccn[nH]3)ccc12 [Compound 215, N-(3-((2-amino-7-(1H-pyrazol-5-yl)quinolin-4-yl)amino)propyl)methanesulfonamide] | 1.94 µM | > 100 µM | > 100 µM | –
Nc1cc(NCc2ccccn2)c2ccc(-c3ccn[nH]3)cc2n1 [Compound 135] | 0.12 µM | > 100 µM | > 100 µM | –
Nc1cc(O[C@H]2COC[C@H]2O)c2ccc(-c3ccn[nH]3)cc2n1 (racemic) [Compound 197] | 2.86 µM | > 100 µM | > 100 µM | –
Nc1nc2cc(-c3cc[nH]n3)ccc2cc1CCCCOCc1ccccc1 [Compound 105, 3-[4-(benzyloxy)butyl]-7-(1H-pyrazol-3-yl)quinolin-2-amine] | 2.98 µM | > 100 µM | > 100 µM | –
